Read-outs that look alike come from different tables or passages of the source.
Key:
[1] = system: Candida albicans, strain B311; assay: Antifungal susceptibility testing, microdilution broth, pH 5.4/30° C./YNB; type: cell-based; conditions: B311, 24 h
Method: Antifungal Screens were set up initially against Candida albicans, strain B311, and Cryotococcus neoformans, strain L210425. Both pathogens, (originally from the stock culture collection, Medical mycology research center, Washington university-Barnes hospital), were obtained from Dr.Kobayashi, Prof.of infectious diseases, Washington University, St.Louis, Mo.
All cultures are maintained at 30° C. on Sabouraud's dextrose agar slants and subcultured at monthly intervals to fresh medium. All inocula for susceptibility testing are prepared in yeast nitogen base(YNB, Difco) broth.
A loopful of growth from Sabouraud dextrose agar slant is inoculated into 4 ml of YNB broth media and incubated at 30° C. overnight (18-24 hrs) with constant agitation (Gyratory Shaker, New Brunswick Scientific). Prior to setting up susceptibility testing, the organisms are counted in a hemocytometer, and diluted as needed into assay media.
1) (Assay at DH 5.4/30° C. Incubation/YNB Media).
Antifungal assays were carried out initially by a modification of the method published by Jones, et. al; (1), and communicated to Searle by Dr. Kobayashi, Washington University. [R. N. Jones et al, Manual of Clinical Microbiology, 4th ed., (1985)]
The antifungal susceptibility testing consists of a microdilution broth procedure performed in 96 well microtiter plates (Costar, cat#3799). Briefly, test compounds from a 20 mM stock solution in DMSO are diluted into sterile, deionized water (final DMSO concentration not exceeding 1%), to yield 2× the desired concentration (100 uM, 10 uM and 1 uM for an initial screen, or a selected concentration range in serial 2 fold dilutions for EC50 determination). One hundred microliters (100 ul) of each concentration is dispensed into triplicate wells of a 96 well microtiter plate. Appropriate dilutions of a suspension of C.albicans (1×10^6 cells/ml) in 2× YNB is distributed into each of the wells, including growth control wells containing no test compound as well as control wells with 0.5% DMSO. Amphotericin B at 0.05, 1 and 5 ug/ml is included in each assay plate as a positive control. The plates are incubated at 30° C. and cell growth is scored by reading the absorbance at 590 nm on an Elisa plate reader(Dynatech, MR.5000).

C.lusi. = assay: Antifungal susceptibility testing, pH 5.4 assay, different strains of Candida; type: cell-based, C.lusitaniae; conditions: Clavispora lusitaniae, 24 hr
C.glab. = assay: as above; type: cell-based, C.glabrata; conditions: Nakaseomyces glabratus, 24 hr
Candida albicans NMT = target: T1, Candida albicans NMT (Candida albicans, UniProt P30418); assay: NMT enzyme inhibition assay (radiochemical HPLC end-point), Candida NMT; type: biochemical; conditions: for IC50: read-out: IC50 caNMT
T1 construct: made in house; host or cells: E. coli
T1 sequence (P30418 1-451): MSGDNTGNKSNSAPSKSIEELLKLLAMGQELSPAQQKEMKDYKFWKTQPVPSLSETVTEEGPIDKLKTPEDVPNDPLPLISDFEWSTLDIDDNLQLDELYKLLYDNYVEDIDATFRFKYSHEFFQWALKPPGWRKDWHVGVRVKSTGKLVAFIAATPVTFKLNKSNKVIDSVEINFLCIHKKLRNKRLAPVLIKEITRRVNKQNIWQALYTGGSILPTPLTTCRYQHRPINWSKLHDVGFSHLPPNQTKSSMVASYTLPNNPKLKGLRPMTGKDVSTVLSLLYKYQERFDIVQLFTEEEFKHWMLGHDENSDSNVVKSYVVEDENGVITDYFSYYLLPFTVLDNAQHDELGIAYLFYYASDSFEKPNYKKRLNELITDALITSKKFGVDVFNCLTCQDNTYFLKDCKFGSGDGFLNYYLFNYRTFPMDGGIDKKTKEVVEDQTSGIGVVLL
Method: Recombinant Candida albicans and human NMTs were expressed and purified from E. coli using previously described protocols. [D. A. Towler et al, Proc. Natl. Acad. Sci. USA, 84, 2707-2712 (1987); R. C. Weigand et al, J. Biol. Chem., 267, 8591-8598 (1992); R. J. Duronio et al, Proc. Natl. Acad. Sci. USA, 89, 4129-4133 (1992)] The ability of compounds to inhibit Candida NMT enzymatic activity was assessed using a radiochemical HPLC end-point assay as described previously for Saccharomyces cerevisiae and human NMTs. [D. Towler et al, Proc. Natl. Acad. Sci. USA, 83, 2812-2816 (1986); W. J. Rocque et al, J. Biol. Chem., 268, 9964-9971 (1991)] The donor substrate [^3H]myristoyl-coenzyme A was enzymatically synthesized from [^3H]myristic acid (50 Ci/mmol, Amersham, Arlington Heights, Ill.) and coenzyme A (Fluka Chemical Corp., Ronkonkoma, N.Y.), and purified as described previously. [W. J. Rocque et al, J. Biol. Chem., 268, 9964-9971 (1991)] The peptide acceptor substrate GNAASARR-NH2 was prepared by solid-phase peptide synthesis using the t-Boc amino acid methodology, followed by HF treatment and reverse-phase HPLC purification. Inhibitor stock solutions were prepared at 22 mM in DMSO; the final concentration of DMSO in each assay was 0.5% (v/v). Inhibition assays were carried out by combining variable amounts of inhibitor or buffer with […] of [^3H]myristoyl-coenzyme A (1 μCi, 9.09 Ci/mmol) and 2.2 nmoles of GNAASARR-NH2 in a total volume of 60 μL of 0.2 M N-[2-hydroxy-ethyl]piperazine-N′-[2-ethanesulfonic acid], pH 7.4, 2 mM DL-dithiothreitol, 0.2 mM ethylene glycol-bis-(β-aminoethyl ether) N,N,N′,N′-tetraacetic acid, and initiating the reaction by the addition of 50 μL of a Candida NMT solution (7-12 ng/50 μL). Assays with human NMT were identical except that they used 60-75 ng/50 μL of enzyme solution and 0.22 nmoles of GNAASARR-NH2. The reaction was quenched after 10 minutes at 24° C. by the addition of ice-cold MeOH, and the reaction products were separated and measured using C4 reverse-phase HPLC (Vydac 214TP10415; Separations Group, Hesperia, Calif.) and in-line scintillation counting using a Radiomatic A250 (Packard Instruments, Downers Grove, Ill.) and Ecolite(+) (ICN Biomedical, Costa Mesa, Calif.) as the scintillant. Selectivity was determined by calculating the ratio of the IC50 against human NMT to the IC50 against C. albicans NMT.

[2] = pH 5.4, read-out: ACTIVITY (EC50) C.alb (B311)

| Structure (SMILES) | EC50 [1, 2] | EC50 ([1]; read-out: caEC50 24 hours) | EC50 (C.lusi.) | EC50 (C.glab.) | IC50 (Candida albicans NMT; Comparator Compound A table) | inhibition of purified C. albicans Nmt in vitro (Candida albicans NMT; result in words) | EC50 ([1]; pH 5.4, read-out: caEC50 24 hours) | IC50 (Candida albicans NMT; Table V) | Selectivity (Candida albicans NMT; ratio of IC50 against human NMT to IC50 against C. albicans NMT) |
| --- | --- | --- | --- | --- | --- | --- | --- | --- | --- |
| Cc1nccn1CCCCc1ccc(CC(=O)N[C@H](CO)C(=O)N[C@H](CCCCN)C(=O)N[C@H](CC2CCCCC2)C(=O)O)cc1 [Comparator Compound A, D-Alanine, 3-cyclohexyl-N-[N^2-[N-[[4-[4-(2-methyl-1H-imidazol-1-yl)butyl]phenyl]acetyl]-D-seryl]-D-lysyl]-, bis-trifluoroacetate] | > 400 µM | > 400 µM | > 250 µM | > 250 µM | > 1000 µM | not an inhibitor |  |  |  |
| Cc1nccn1CCCCc1ccc(CC(=O)N[C@@H](CO)C(=O)N[C@@H](CCCCN)C(=O)N[C@@H](CC2CCCCC2)C(=O)O)cc1 [Example 2, L-Alanine, 3-cyclohexyl-N-[N^2-[N-[[4-[4-(2-Methyl-1H-imidazol-1-yl)butyl]phenyl]acetyl]-L-seryl]-L-lysyl]-, bis-trifluoroacetate] | 35 µM |  | > 250 µM | > 250 µM |  |  | 35 µM | 1.4 µM | 560 |

Source: patent publication US6632921B1, “Seryl-lysyl-based peptide and peptidomimetic inhibitors of N-myristoyl transferase as anti-infective agents” (G. D Searle & Co, priority 1995, dated 2003)
